Data from patent US20060292099A1, “Treatment of eye disorders with sirtuin modulators” (priority 2005, published 2006).
“And” between values parts separate entries of the source, which are not always exact repeats. Equal entries are not always repeated. Where two headings read alike, the source gives them in different places.

What was measured:
[1] = test system: EAE mice with optic neuritis; assay: Clinical EAE score and incidence of optic neuritis, resveratrol intravitreal; type: in vivo, SJL/J mice; conditions: for Peak EAE Score For Individual Mice: five point scale
Excerpt: (§1) The experimental design is diagrammed in FIG. 21.
Mice were scored daily for clinical EAE on a five point scale: no disease=0; partial tail paralysis=0.5; tail paralysis or waddling gait=1.0; partial tail paralysis and waddling gait=1.5; tail paralysis and waddling gait=2.0; partial limb paralysis=2.5; paralysis of one limb=3.0; paralysis of one limb and partial paralysis of another=3.5; paralysis of two limbs=4.0; moribund state=4.5; death=5.0.
(§2) Retinas were diessected and whole-mounted for fluorescent microscopy. […] Optic nerves were dissected and processed for histology. […] RGCs were compared between PBS-treated and resveratrol-treated eyes with optic neuritis to determine whether resveratrol prevents loss of neurons.

[2] = Measured resveratrol concentration in Captisol solutions and reconstitution of lyophilized product; type: physicochemical
Experimental: Lyophilized vials containing 10% Captisol control vehicle were also manufactured. […] Lyophilized vials containing 40% Captisol control vehicle were also manufactured.
The filtered solutions were dispensed into vials (1.0 mL solution into 3 mL vial, Wheaton #223684), and lyophilized. At the end of the lyophilization cycle, the vials were sealed under vacuum and a cap crimped over the septa.
The lyophilized resveratrol product was an off-white cake. The material reconstituted in ˜20 seconds after the addition of 1.0 mL water. […] The lyophilized control vehicle product was a white cake. The material reconstituted in ˜20 seconds after the addition of 1.0 mL water. The reconstituted control vehicle was clear, with no visible particulates, and having a pH of 5.82.
The solution was stirred for 35 minutes, followed by sonication for 1 hour. The solution was stirred for an additional 50 minutes, followed by sonication for an additional hour. At this point, solid material was still present in the sample. An aliquot was removed for analysis. […] Because the solution appeared cloudy at this time, three portions were separated to try alternate mixing methods. Approximately 200 mL was transferred to a 500 mL volumetric flask and was sonicated for 45 min, approximately 300 mL was vigorously mixed with an overhead mixer for 90 minutes, and approximately 100 mL was homogenized for 25 minutes. None of the three portions appeared clear. […] The portions were combined and were stirred at ambient temperature overnight protected from light. The following morning, using an aseptic technique in the laminar flow hood, the solution was sterile filtered via a Nalgene 90 mm filter unit (Cat# 167-0020; […]).

[3] = test system: retinal ganglion cells (RGCs); assay: Retinal ganglion cell (RGC) counts in EAE optic neuritis model, resveratrol intravitreal; type: in vivo, SJL/J mice; conditions: for RGC numbers: EAE eyes with optic neuritis, 0.8 μl intravitreal days 0, 3, 7, 11, day 14
Experimental: as §1
Three test doses were diluted:
as §2

[4] = test system: retinal ganglion cells (RGCs)
Experimental: (§3) Study outline: The neuroprotective effects of nicotinamide riboside were examined in EAE mice with optic neuritis. […] To induce EAE, mice were immunized several days later with 300 μg PLP emulsified in complete Freund's adjuvant (CFA), and control mice (without EAE) were mock-immunized with phosphate buffered saline (PBS) in CFA. All mice received 200 ng intraperitoneal pertussis toxin (PT) on the day of immunization (day 0) and again on day 2.
(§4) Eyes were treated with nicotinamide riboside by intravitreal (ivt) injections with a volume of 0.8 μl/injection of a stock solution of either 0.1 M or 0.4 M nicotinamide riboside in PBS (Groups 2, 4 and 5). […] Treament with nicotinamide riboside, as well as PBS control injections, were given ivt on days 0, 4, 7 and 11. Mice were scored daily for clinical EAE, and were sacrificed on day 14 by overdose with ketamine and xylazine.
(§5) Retinas were dissected and whole-mounted for fluorescent microscopy. RGC numbers were quantified by counting FG-labeled cells in 12 standardized fields in each retina. Optic nerves were dissected and processed for histology. Cut sections stained by H & E were evaluated for the presence of inflammatory cells to determine acute optic neuritis. RGCs were compared between PBS-treated and nicotinamide riboside-treated eyes with optic neuritis to determine whether nicotinamide riboside prevents loss of neurons.

[5] = test system: EAE mice with optic neuritis; assay: Incidence of optic neuritis (inflammatory cell infiltration of optic nerve) and clinical EAE, nicotinamide riboside; type: in vivo, SJL/J mice
Experimental: as §3, §4, §5

retinal ganglion cells = conditions: animals, recent study (glaucoma background); cited from earlier work
[6] = optic nerve, acute optic neuritis in EAE

## Oc1ccc(/C=C/c2cc(O)cc(O)c2)cc1 [resveratrol, 3,5,4′-Trihydroxy-trans-stilbene]
[1]; Control (non-EAE) mice, 38 μM resveratrol intravitreal
  Peak EAE Score For Individual Mice: 0
[1]; Control (non-EAE) mice, 600 μM resveratrol intravitreal
  Peak EAE Score For Individual Mice: 0
[1]; EAE mice, 38 μM resveratrol intravitreal
  Peak EAE Score For Individual Mice: 1.5 and 3 (2×) and 0 and 5 and 2.5 and 1 (2×)
[1]; EAE mice, 77 μM resveratrol intravitreal
  Peak EAE Score For Individual Mice: 2 (4×) and 2.5 (3×) and 0 and 3.5 and 5 and 1.5
[1]; EAE mice, 600 μM resveratrol intravitreal
  Peak EAE Score For Individual Mice: 2.5 and 2 (2×) and 5 and 4.5 and 1.5 and 0.5
[1]; [6]
  Inflammatory cell infiltration: does not prevent
[1]; resveratrol treated mice vs controls
  Incidence of optic neuritis and clinical EAE vs controls: did not differ
[2]; 10% Captisol lyophilisate reconstituted with 1.0 mL water, pH 5.91
  concentration of resveratrol in solution: 14400 µM
[2]; 10% Captisol, after 0.20 μm filtration, pH 4.83
  concentration of resveratrol in solution: 14900 µM
[2]; 10% Captisol, mixed 1 hour at ambient temperature, initial solution, pH 5.02 (target 20 mM)
  concentration of resveratrol in solution: 15400 µM
[2]; 40% Captisol, after stirring and sonication, solid still present, pH 4.76 (target 175 mM)
  concentration of resveratrol in solution (HPLC): 55000 µM
[2]; 40% Captisol, portion homogenized for 25 minutes
  concentration of resveratrol in solution: 74000 µM
[2]; 40% Captisol, stirred overnight at ambient temperature, sterile filtered
  concentration of resveratrol in solution: 168000 µM
[3]; 38 μM resveratrol
  RGC numbers: 452±136 RGCs
[3]; 77 μM resveratrol
  RGC numbers: 585±198 RGCs
[3]; 600 μM resveratrol
  RGC numbers: 644±148 RGCs
[3]; mouse, in vivo
  Toxicity to RGCs: not toxic
[3]; non-EAE eyes treated with resveratrol vs control eyes
  RGC numbers vs control eyes: no difference

## NC(=O)c1ccc[n+]([C@@H]2O[C@H](CO)[C@@H](O)[C@H]2O)c1 [nicotinamide riboside]
[4]; mouse, in vivo
  Toxicity to RGCs: not toxic
[4]; non-EAE eyes treated with nicotinamide riboside (Group 2) vs control eyes (Group 1)
  RGC numbers vs control eyes: no difference
[5]; nicotinamide riboside treated mice vs controls
  Incidence of optic neuritis and clinical EAE vs controls: did not differ
[5]; [6]
  Inflammatory cell infiltration: does not prevent

## N=C(N)NN [aminoguanidine]
Retinal ganglion cells
  loss of retinal ganglion cells: reduction in the loss of retinal ganglion cells
